For one data set, the system named is S. pneumoniae KY-9. Put plainly: Antibacterial activity against Streptococcus pneumoniae in vitro, CLSI microdilution. The format is cell-based. The conditions noted are these: KY9. On the procedure: The antibacterial activities in vitro of the compound D, garenoxacin, and levofloxacin against a strain in a mouse infected with Streptococcus pneumoniae (S. pneumonia KY-9) were measured in accordance with a CLSI microdilution method.

For another data set, the system named is E. coli ATCC25922. Put plainly: Frequency of development of resistant bacteria. Type of data set: cell-based, Escherichia coli. The conditions noted are these: for FREQUENCY OF DEVELOPMENT OF RESISTANT BACTERIA (AVERAGE OF TWO MEASURED VALUES): about 70 hours. As for the experimental part: (§1) S. aureus ATCC29213 is Staphylococcus aureus, S. pneumoniae ATCC49619 is Streptococcus pneumoniae, and E. coli ATCC25922 is Escherichia coli. […]
(§2) The frequency of development of resistant bacteria was calculated by dividing the number of colonies developed on an agar medium having each drug concentration by the number of initially inoculated bacteria.

Another data set concerns S. aureus ATCC29213. Nature of the data set: Frequency of development of resistant bacteria. The following applies: for development of resistant bacteria (in words): S. aureus ATCC29213, 4 to 16 × MIC; for FREQUENCY OF DEVELOPMENT OF RESISTANT BACTERIA (AVERAGE OF TWO MEASURED VALUES): about 70 hours. The format is cell-based, Staphylococcus aureus. As for the experimental part: as §1, §2

For the next data set, the system named is S. pneumoniae SN9981. Nature of the data set: microbe, parasite or virus in culture. The format is cell-based. The following applies: Streptococcus pneumoniae.
The conditions of data set [1]: human, 2.5 to 3.5 hours after administration; cited from earlier work.
The conditions of data set [2]: 400 mg, patients with bacterial pneumonia; cited from earlier work.
For another data set, the system named is S. aureus MS5935 1st. Put plainly: microbe, parasite or virus in culture. Type of data set: cell-based. The conditions noted are these: Staphylococcus aureus, MS59351ST.
The conditions of data set [3]: consecutive administration, daily dose of 400 mg; cited from earlier work.
Data set [4] has as its target Topoisomerase IV (S. aureus) (Staphylococcus aureus, UniProt P0C1S7+P0C1U9). Nature of the data set: Enzyme inhibitory activity, decatenation of kinetoplast DNA. The format is biochemical. On the procedure: (§3) Agents Chemother. 45: 3544-3547 (2001). […] The measurement was performed in the same manner as in Test Example 3. Similarly, the inhibitory activities of ciproxacin, levofloxacin, and garenoxacin were measured. The results were compared.

The target of data set [5] is QUINOLONE RESISTANT Topoisomerase IV (S. aureus) (Staphylococcus aureus, UniProt P0C1U9). The description is as above. Type of data set: biochemical. As for the experimental part: as §3
A short description of data set [6]: AUC and Cmax, plasma concentration by HPLC after repeated oral doses. The conditions noted are these: male, human, Japanese healthy adult males, oral 75 mg once daily for seven days, day 7, plasma. Type of data set: in vivo. On the procedure:
Six Japanese healthy adult males received oral doses of 75 mg compound D once daily for seven consecutive days. The plasma concentration of compound D was measured by the HPLC method, and the pharmacokinetic parameters were calculated.

Data set [7] can be described thus: Concentration in tissue (human, oral administration): epithelial lining fluid, alveolar macrophages, plasma. Type of data set: in vivo. The following applies: male, oral single dose 75 mg; for Kp: over 1 to 24 hours. On the procedure:
Concentration of compound D in lung tissue (epithelial lining fluid and alveolar macrophages) and plasma was measured to investigate intrapulmonary distribution of compound D after oral single administration of this drug, with reference to a method in Document (Antimicrobial Agents and Chemotherapy, February 2010, pp. 866-870).
The measurement was as follows. Healthy adult male volunteers were given oral single dose of compound D (75 mg). The bronchoalveolar lavage fluid and blood samples were collected from the subjects at 1, 2, 4, 6, and 24 hours after the administration. The collection of the fluid and blood samples was carried out at each time point for six subjects. The bronchoalveolar lavage fluid was centrifuged to separate from epithelial lining fluid and alveolar macrophages for measurement of the drug concentration. The concentrations of compound D in lung tissue and plasma were measured by LC/MS/MS.

A short description of data set [8]: Clinical efficacy (cure rate) in patients with community-acquired pneumonia. Type of data set: in vivo, human. The following applies: oral 75 mg once daily for 7 days, seven days after treatment completion. On the procedure:
We investigated efficacy of compound D for the patients with community-acquired pneumonia. 50 patients with community-acquired pneumonia were orally administered 75 mg of compound D once daily for 7 days. The clinical efficacy (cure rate) was evaluated at seven days after treatment completion. The clinical trial was performed in accordance with a part of evaluation on patients with community-acquired pneumonia (pp. 34 to 38) in “general guidelines for the evaluation of new antimicrobial agents for the treatment of respiratory tract infections (second version).”

The mark [9] stands for this setting: alveolar macrophages, read-out: TISSUE DISTRIBUTION RATIO, ALVEOLAR MACROPHAGES
[10] abbreviates: epithelial lining fluid, read-out: TISSUE DISTRIBUTION RATIO, ALVEOLAR EPITHELIAL LINING FLUID.

Values after ≈ are worked out from the molar mass of the structure shown. Like-named read-outs stand apart in the source and are kept apart here. Marks after values point to notes of the source that are not given here.

In general, AUC refers to concentration integrated over time. As usually defined, the IC50 is the concentration needed to halve the response being measured.

For `C[C@H]1NCc2cc(-c3ccc4c(=O)c(C(=O)O)cn(C5CC5)c4c3OC(F)F)ccc21` [GRNX, garenoxacin], the MIC was found to be 0.03 µg/mL (≈ 0.0704 µM) in the data set with S. pneumoniae KY-9, 1 µg/mL (≈ 2.35 µM) in the data set with S. pneumoniae SN9981 and 0.03 µg/mL (≈ 0.0704 µM) against S. aureus MS5935 1st. Besides, the “FREQUENCY OF DEVELOPMENT OF RESISTANT BACTERIA (AVERAGE OF TWO MEASURED VALUES)” value with E. coli ATCC25922 (E. coli ATCC25922, 4 × MIC) is given as <1.9 × 10^−9; in the data set on E. coli ATCC25922 (E. coli ATCC25922, 8 × MIC) it was <1.9 × 10^−9; in the data set with E. coli ATCC25922 (E. coli ATCC25922, 16 × MIC) it was <1.9 × 10^−9; with S. aureus ATCC29213 (S. aureus ATCC29213, 4 × MIC), 8.2 × 10^−9*; in the data set with S. aureus ATCC29213 (S. aureus ATCC29213, 8 × MIC), <2.1 × 10^−9; in the data set with S. aureus ATCC29213 (S. aureus ATCC29213, 16 × MIC), <2.1 × 10^−9. Besides, in the data set on S. aureus ATCC29213, the “development of resistant bacteria (in words)” value is “developed”. Further, the “tissue distribution ratio in the alveolar macrophages” value in data set [1] was 11.15±8.16. Moreover, in data set [1], the “tissue distribution ratio in the epithelial lining fluid” value is listed as 0.95±0.41. For the same molecule, in [2], the clinical efficacy rate is listed as 94.9%. Further, the exposure (AUC) in data set [3] was 110900 ng·h/mL. Besides, in [3], the Cmax was 11060 ng/mL. Moreover, the IC50 in data set [4] (S. aureus enzyme, read-out: IC50 VALUE, Topoisomerase IV (converted)) was 4.46 µM; in data set [5] (read-out: IC50 VALUE, QUINOLONE RESISTANT Topoisomerase IV (converted)), 63.3 µM.
Regarding `COc1c(N2C[C@H](CNC3CC3)[C@H](F)C2)c(F)cc2c(=O)c(C(=O)O)cn(CCF)c12.Cl` [Compound D, 7-[(3S,4S)-3-{(cyclopropylamino)methyl}-4-fluoropyrrolidine-1-yl]-6-fluoro-1-(2-fluoroethyl)-8-methoxy-4-oxo-1,4-dihydroquinoline-3-carboxylic acid hydrochloride], the values for the MIC against S. pneumoniae KY-9, against S. pneumoniae SN9981 and against S. aureus MS5935 1st were 0.06 µg/mL, 0.25 µg/mL and 0.03 µg/mL, respectively. The “development of resistant bacteria (in words)” value in the data set on E. coli ATCC25922 (E. coli ATCC25922, 4 to 16 × MIC) is given as “not observed”; in the data set on S. aureus ATCC29213 it was “not observed”. Further, the “FREQUENCY OF DEVELOPMENT OF RESISTANT BACTERIA (AVERAGE OF TWO MEASURED VALUES)” value is given as <1.9 × 10^−9 in the data set with E. coli ATCC25922 (E. coli ATCC25922, 4 × MIC); <1.9 × 10^−9 with E. coli ATCC25922 (E. coli ATCC25922, 8 × MIC); <1.9 × 10^−9 in the data set on E. coli ATCC25922 (E. coli ATCC25922, 16 × MIC); <2.1 × 10^−9 in the data set on S. aureus ATCC29213 (S. aureus ATCC29213, 4 × MIC); <2.1 × 10^−9 in the data set on S. aureus ATCC29213 (S. aureus ATCC29213, 8 × MIC); <2.1 × 10^−9 in the data set on S. aureus ATCC29213 (S. aureus ATCC29213, 16 × MIC). Also, in data set [6] (read-out: area under the curve (AUC)), the AUC came to 20600 ng·h/mL. For the same molecule, in data set [6] (read-out: maximum drug concentration (Cmax)), the Cmax is 998 ng/mL. The Kp at 1 h in data set [7] (setting [9]) turned out to be 31.9; in data set [7] (setting [10]), 22.5. Besides, the values for the Kp at 2 h in data set [7] (setting [9]) and in data set [7] (setting [10]) were 18.5 and 18.4, respectively. The values for the Kp at 4 h in data set [7] (setting [9]) and in [7] (setting [10]) were 21.9 and 16.5, respectively. For the same molecule, the Kp at 6 h came to 56.4 in data set [7] (setting [9]) and 15.2 in data set [7] (setting [10]). Besides, the Kp at 24 h is 38 in data set [7] (setting [9]) and 15 in [7] (setting [10]). For the same molecule, the Kp in [7] (alveolar macrophages, read-out: tissue distribution ratio in alveolar macrophages, range) lay within 18.5 to 56.4; in [7] (epithelial lining fluid, read-out: tissue distribution ratio in epithelial lining fluid, range), 15 to 22.5. In data set [8], the “clinical efficacy (cure rate)” value was determined as 90.0%. Moreover, the IC50 was 1.53 µM in data set [4] and 5.88 µM in data set [5] (read-out: IC50 VALUE, QUINOLONE RESISTANT Topoisomerase IV).
